Measurements published in article PMC4830892, “A microarray-based approach to evaluate the functional significance of protein-binding motifs” (Analytical and Bioanalytical Chemistry, 2016).
Like-named read-outs stand apart in the source and are kept apart here. Non-standard residues stand in square brackets, D forms with d. Residues, ends and D or L forms follow the SMILES beside them. pY = N[C@@H](Cc1ccc(OP(=O)(O)O)cc1)C(=O)O

How the values were obtained:
[1] = test system: proteins in Jurkat cell lysate (total cellular proteome); test: Competition of recombinant GRB2-SH2 binding with cell lysate on peptide microarrays
Experimental: (§1) Jurkat T cell leukaemia cells were maintained in RPMI 1640 medium (PAN-Biotech, Aisenbach, Germany) supplemented with 10 % foetal calf serum at 37 °C in 5 % CO2. For the preparation of lysates, cells were resuspended in lysis buffer (1 % Triton X-100, 50 mM n-octyl-D-glucopyranoside (Fluka, Taufkirchen, Germany), 20 mM Tris, 1 mM EDTA, 150 mM NaCl, 1 mM Na3VO4, pH 7.5, and complete protease inhibitor cocktail (Roche Applied Science, Mannheim, Germany)). Incubation on ice for 1 h was followed by centrifugation at 20,000×g at 4 °C for 15 min to remove cell debris. Transmembrane proteins were extracted from lipid rafts by using N-octyl-D-glucopyranoside. Protein concentrations were measured by Bradford Assay.
The PCR product of the SH2 domain of GRB2 (GRB2-SH2) was cloned into the pET160/GW/D-TOPO vector (Invitrogen, Breda, The Netherlands), which contains a region encoding for a His-tag. The plasmid was used to perform a transformation into One Shot TOP10 competent cells (Invitrogen). […] The concentration of expressed protein was determined by photometric measurements at OD280. The concentration of GRB2-SH2 was determined in Western blots by quantitatively analysing obtained bands of purified GRB2-SH2 in an Odyssey Infrared Imaging System (Li-Cor Biosciences, Bad Homburg, Germany) in comparison with a bovine serum albumin (BSA) standard. […]

[2] = test system: proteins in Jurkat cell lysate (total cellular proteome); test: Competition of α-pY antibody binding with Jurkat cell lysate on peptide microarrays; details: for Kd: from EC50 and Kd α-pY by Cheng-Prusoff equation (Eq. 4), ± standard deviation
Experimental: (§2) Peptides that correspond to known interaction motifs involved in the formation of protein complexes in T cell signalling were purchased from EMC microcollections (Tübingen, Germany). All peptides carried an extra cysteine residue and a free N-terminus for immobilisation on the microarray substrates and a C-terminal amidation (see Electronic Supplementary Material (ESM), Table S1).
(§3) For generation of microarrays, peptide stock solutions (3 mM) in DMF were diluted 30 times with phosphate buffer (100 mM, pH 8) supplemented with 0.006 % (v/v) Triton X-100. N-Hydroxysuccinimide-preactivated slides served as substrates for immobilisation (Nexterion Slide H, Schott Nexterion/Peq-Lab, Erlangen, Germany) using a Nano-Plotter NP2.0 (GeSIM, Großerkmannshof, Germany), which employs piezo-driven pipetting tips to dispense peptide solutions. Microarray slides comprised 16 subarrays of doublets of each peptide. For each peptide, a volume of 1.2 nl was dispensed at a centre-to-centre spacing of 500 μm. During printing, temperature was maintained at 15 °C and air humidity at 65 %.
as §1
(§4) Sixteen incubation chambers with identical subarrays consisting of peptides derived from binding motifs of signalling proteins (see ESM Table S1) were generated by attaching a clip-on frame to the microarray substrate (ProPlate Multiarray System, Grace Biolabs, Molecular Probes, Eugene, OR, USA). The typical incubation volume for the subarrays was 50 μl. Microarrays were either incubated with an α-pY antibody (α-pTyr 100, 9411, Cell Signalling, Frankfurt am Main, Germany) at the indicated concentrations or co-incubated with cell lysate at the indicated concentrations for 3 h at 4 °C. Additionally, in another set of experiments, recombinant GRB2-SH2 was incubated on microarrays alone or co-incubated with cell lysate employing an α-penta HIS antibody (34600, Qiagen, Hilden, Germany) for the detection of His-tagged GRB2-SH2.
(§5) After incubation, microarrays were washed three times with washing buffer (PBS, 0.05 % (w/v) BSA, 0.05 % (w/v) Tween-20). For the detection of signals, microarrays were incubated with a secondary α-mouse antibody conjugated with Alexa633 (A-21050, Invitrogen) at a concentration of 1 μg/ml for 15 min at RT followed by a last washing step with washing buffer. Microarrays were dried with nitrogen and scanned using a ProScanArray (PerkinElmer Life Sciences, Waltham, Massachusetts), and the data were analysed using ArrayPro Analyzer software (Media Cybernetics, Silver Spring, USA) as described before. Final data represented the mean signal intensities corrected for the median of a ring-shaped local background surrounding the respective peptide spot. Titrations with α-pY antibody and GRB2-SH2 were performed to calculate dissociation constants (see below).
For determination of EC50 values for competition with cell lysate, curves were fitted according to2 y=y0+Ae^−x/t with y0 as the signal intensity of the α-pY antibody or the recombinant GRB2-SH2 domain without cell lysate, A the amplitude, x the protein concentration in lysate, and t the decay constant. […]

[3] = test system: α-phosphotyrosine antibody (α-pTyr 100); test: Titration of α-pY antibody on peptide microarrays; format: binding; details: for affinity of the α-pY antibody (in words): compared with the other pY peptides; for Kd: peptide microarray, α-pY antibody 0.06 to 6.66 nM, 3 h at 4 °C, indirect immunofluorescence (Alexa633), bimolecular binding isotherm (Eq. 1), average ± standard deviation, six independent experiments
Experimental: as §2, §3, §4, §5
The resulting titration curves were fitted with Origin (OriginLab Corporation, v.6.1057, Northampton, USA) using a binding isotherm for a bimolecular interaction (Eq. 1):1 Fabs=Fmaxprot/Kd+prot Fabs represents the intensity of a microarray spot after background correction and [prot] the concentration of the titrated binder. Kd and Fmax were obtained from the fits.
To render this approach quantitative, first the affinities of the α-pY antibody towards the phosphotyrosine motifs of the microarrays were determined. […] The titration curves were fitted with a binding isotherm for a bimolecular interaction (Eq. 1, Fig. 2a, Table 1). In general, a coefficient of determination (R^2) of 0.8 was used as a cutoff in order to score a peptide as a binder. […] Regarding the poly-proline motif (PP) containing peptides present on the microarray, only on the peptide GAB2-509 in five experiments, a titration curve with an R^2 > 0.8 could be generated.

[4] = test system: SH2 domain of GRB2 (GRB2-SH2); details: cited from earlier work; for binding to GRB2 / GRB2-SH2 (in words): Kd values of GRB2-SH2 described in recently published manuscript, ref [14]
Description: In contrast, the data points for LATpY191 and SHP1pY564, and SigpY437, ZAPpY319 and CDζpY72/83 were above or below the linear correlation defined by the first four peptides. […] SigpY437, in contrast, is a poor binder for which already low concent ...

SMILES: CC(C)C[C@H](NC(=O)[C@H](CCC(=O)O)NC(=O)[C@H](CCC(N)=O)NC(=O)[C@H](CO)NC(=O)[C@@H](NC(=O)[C@H](CC(N)=O)NC(=O)[C@@H](NC(=O)[C@H](Cc1ccc(OP(=O)(O)O)cc1)NC(=O)[C@H](CCC(=O)O)NC(=O)[C@H](CCCNC(=N)N)NC(=O)[C@H](CO)NC(=O)CNC(=O)[C@H](CC(=O)O)NC(=O)[C@H](CC(C)C)NC(=O)[C@H](CO)NC(=O)[C@H](C)NC(=O)[C@H](CCC(=O)O)NC(=O)[C@@H](N)CS)C(C)C)C(C)C)C(N)=O [LATpY191] (H-CEASLDGSRE[pY]VNVSQEL-NH2)
- competition of GRB2-SH2 by cell lysate (in words) [1]: rather small competition
- Kd [2]: 16 ± 15 µM
- loss of signal of the α-pY antibody on competition with cell lysate ([2]; result in words, Jurkat lysate up to 180 μM total protein): total loss of signal
- affinity of the α-pY antibody (in words) [3]: high affinity
- Kd [3]: 0.00035 ± 0.00028 µM
- affinity for the SH2 domain of GRB2 (in words) ([4]; ref [25], [26]): strong affinity

SMILES: CC(C)C[C@H](NC(=O)[C@H](CC(N)=O)NC(=O)[C@H](CCC(=O)O)NC(=O)[C@H](Cc1ccc(OP(=O)(O)O)cc1)NC(=O)[C@@H](NC(=O)[C@H](CC(=O)O)NC(=O)[C@H](CCC(=O)O)NC(=O)[C@H](CCCCN)NC(=O)[C@H](Cc1c[nH]cn1)NC(=O)[C@H](CCCCN)NC(=O)[C@H](CO)NC(=O)[C@@H](N)CS)C(C)C)C(=O)N[C@@H](Cc1c[nH]cn1)C(=O)N[C@H](C(=O)N[C@@H](CCCCN)C(=O)N[C@@H](CC(N)=O)C(=O)N[C@@H](CCCCN)C(N)=O)[C@@H](C)O [SHP1pY564] (H-CSKHKEDV[pY]ENLHTKNK-NH2)
- Kd [2]: 17 ± 10 µM
- affinity of the α-pY antibody (in words) [3]: relatively low affinity
- Kd [3]: 0.00089 ± 0.00057 µM
- affinity for the SH2 domain of GRB2 (in words) ([4]; same as stated for LATpY191 (strong affinity for SH2 domain of GRB2), ref [27]): The same holds true

SMILES: CC[C@H](C)[C@H](NC(=O)[C@H](CCC(=O)O)NC(=O)[C@H](CCCNC(=N)N)NC(=O)[C@H](CCC(=O)O)NC(=O)[C@H](CCC(=O)O)NC(=O)CNC(=O)[C@@H](N)CS)C(=O)N[C@@H](CCC(N)=O)C(=O)N[C@@H](Cc1ccc(OP(=O)(O)O)cc1)C(=O)N[C@@H](C)C(=O)N1CCC[C@H]1C(=O)N[C@@H](CC(C)C)C(=O)N[C@@H](CO)C(=O)N[C@@H](Cc1ccccc1)C(=O)N[C@@H](Cc1c[nH]cn1)C(=O)N[C@@H](CCCCN)C(=O)NCC(N)=O [SigpY437] (H-CGEEREIQ[pY]APLSFHKG-NH2)
- competition of GRB2-SH2 by cell lysate (in words) [1]: already low concentrations of lysate show full competition
- Kd [2]: 22 ± 20 µM
- Kd [3]: 0.00066 ± 0.00046 µM
- binding to GRB2 / GRB2-SH2 (in words) [4]: poor binder

SMILES: CC[C@H](C)[C@H](NC(=O)[C@H](CCCNC(=N)N)NC(=O)[C@H](C)NC(=O)[C@@H]1CCCN1C(=O)[C@H](CCC(=O)O)NC(=O)[C@@H]1CCCN1C(=O)[C@@H](NC(=O)[C@H](Cc1ccc(OP(=O)(O)O)cc1)NC(=O)CNC(=O)[C@H](CC(=O)O)NC(=O)[C@H](CO)NC(=O)[C@H](CC(N)=O)NC(=O)[C@H](CC(C)C)NC(=O)[C@@H](NC(=O)[C@H](CC(=O)O)NC(=O)[C@@H](NC(=O)[C@@H](N)CS)[C@@H](C)CC)[C@@H](C)O)[C@@H](C)O)C(=O)N[C@H](C(N)=O)[C@@H](C)O [ZAPpY296] (H-CIDTLNSDG[pY]TPEPARIT-NH2)
- Kd [2]: 27 ± 28 µM
- affinity of the α-pY antibody (in words) [3]: relatively low affinity
- Kd [3]: 0.00132 ± 0.00059 µM
- binding to GRB2 / GRB2-SH2 (in words) [4]: good binder
